Measured values reported in patent EP4813979A1, “COMPOUND FOR EGFR PROTEIN DEGRADATION AND USE THEREOF” (TYK Medicines, Inc., priority 2023, dated 2025).

Tested on: not listed separately
Assay: Pharmacokinetic tests in male SD rats
Assay type: in vivo
Details: oral gavage (po), 10 mg/kg, plasma
Method: Three healthy adult male SD rats, 6-8 weeks old, weighing 200-300 grams.
EDTA-Na2 anticoagulant, weighed 11.2 g EDTA-Na2 and placed it in a reagent bottle. Added 100 mL physiological saline and shaked to dissolve completely. After preparation, dispensed into 1.5 mL centrifuge tubes, each containing approximately 20 µL, for whole blood sample collection.
Accurately weighed approximately 10 mg the sample to be tested, added 10% of the converted total volume of DMSO to dissolve it, and then slowly added 90% of the total volume of 0.5% MC solvent while stirring. Sonicated and vortex to mix thoroughly to obtain a solution of the preparation that is considered to be homogeneous, with a concentration of 1 mg/mL. Prepared fresh immediately before use.
Piped 0.2 mL the sample into a 1.5 mL centrifuge tube and store at -80°C for analysis of the concentration of the drug solution.
Animals were housed in rat cages and fasted for at least 10 hours starting the day before the experiment, but water was allowed. On the day of the experiment, each animal was weighed and marked on its tail. Blank blood samples were collected before drug administration. Blood was collected via tail vein.
• Route of administration: Oral gavage (po); • Dosage concentration: 1 mg/ml; • Dosage: 10 mg/kg; • Dosage volume: 10 mL/kg; • Procedure: Hold the rat upright with your left hand wearing a bite-proof glove, insert the gavage needle into the throat through the mouth, and insert the needle when feeling no obvious resistance. Then inject the drug into the stomach.
Whole blood (0.1-0.2 ml) was collected from test animals at 0.5 h, 1 h, 2 h, 4 h, 6 h, 8 h, 12 h, and 24 h after drug administration. The samples were placed in EDTA-Na 2 anticoagulant tubes, inverted 3-4 times to mix, and centrifuged at 4°C, 2000 g for 5 min to separate the supernatant plasma. The plasma was promptly transferred to -80°C for storage until analysis. Blood was collected via tail vein.
A quantitative detection method for the analyte was established using Shimadzu liquid chromatography and Triple Quad™ 6500+AB mass spectrometry. The concentration of the parent drug in plasma was analyzed. The analytical results were controlled for variation using quality control samples, with the accuracy of the quality control samples expected to be between 80% and 120%.
The main pharmacokinetic parameters were calculated using a non-compartmental model in Winnonlin Phoenix software. These parameters included the area under the curve (AUC(0-t) and AUC(0-∞)), elimination half-life (T1/2), maximum plasma concentration (Cmax ), and time to reach maximum plasma concentration (Tmax).The results are shown in Table 3.

Row | Structure (SMILES) | HL
1 | CCc1cc(Nc2ncc(Cl)c(Nc3ccccc3P(C)(C)=O)n2)c(OC)cc1N1CC2(CCN(C(=O)CN3CCC(c4cc5c(cc4F)c(N4CCC(=O)NC4=O)nn5C)CC3)CC2)C1 [TC-093] | 3.43 h
2 | CCc1cc(Nc2ncc(Br)c(Nc3ccccc3P(C)(C)=O)n2)c(OC)cc1N1CCN(C(=O)Cn2nc(C)c(-c3cc4c(cc3F)c(N3CCC(=O)NC3=O)nn4C)c2C)CC1 [TC-144] | 3.21 h

Same assay, conditions: rat, in vivo, oral gavage (po), 10 mg/kg, plasma

Row | Structure (SMILES) | AUC(0-inf) | AUC(0-t) | Cmax | MRT last | Tmax
3 | CCc1cc(Nc2ncc(Br)c(Nc3ccccc3P(C)(C)=O)n2)c(OC)cc1N1CCN(C(=O)Cn2nc(C)c(-c3cc4c(cc3F)c(N3CCC(=O)NC3=O)nn4C)c2C)CC1 [TC-144] | 4140 ng·h/mL | 4120 ng·h/mL | 700 ng/mL | 4.23 h | 0.67 h

Same assay, conditions: rat, oral gavage (po), 10 mg/kg, plasma

Row | Structure (SMILES) | AUC(0-inf) | AUC(0-t) | Cmax | MRT last | Tmax
4 | CCc1cc(Nc2ncc(Cl)c(Nc3ccccc3P(C)(C)=O)n2)c(OC)cc1N1CC2(CCN(C(=O)CN3CCC(c4cc5c(cc4F)c(N4CCC(=O)NC4=O)nn5C)CC3)CC2)C1 [TC-093] | 4930 ng·h/mL | 5030 ng·h/mL | 665 ng/mL | 5.98 h | 4 h

Tested on: H1975
Assay: Cell anti-proliferation experiment (CTG)
Assay type: cell-based
Details: Homo sapiens, NCI-H1975, 72 h, H1975 (EGFR T790M/L858R), class symbol
Excerpt: (§1) H1975 has an EGFR: T790M/L858R double mutation, PC-9 has an EGFR exon 19 deletion, and HCC827 has an exon 19 deletion mutation. Baf3-19del- T790M -C797S (Baf3-DTC) is a stable Ba/F3 clone expressing exogenous EGFR gene bearing T790M, C797S, and […] triple amino acid mutations, purchased from KYinno. Baf3-L858R-T790M - C797S (Baf3-LTC) is a stable Ba/F3 clone expressing exogenous EGFR gene bearing […], T790M, and C797S triple mutations, purchased from KYinno. A549 is a wild-type EGFR, purchased from Nanjing Kebai Biotechnology. A431 is a wild-type EGFR, purchased from Shanghai Xinyu Biotechnology. CellCounting-Lite2.0, Trypsin EDTA, 37°C CO2 incubator, cell counter, EnVision Serial No. 1050454.
(§2) • A) Digested logarithmic phase cells with Trypsin EDTA, added culture medium to stop the reaction, and mixing well with a pipette to prepare a cell suspension. • B) Used Vi-cell to determine cell concentration, and prepared a suspension of 15,000-25,000 cells per milliliter according to the experimental purpose and cell characteristics. • C) After prepared the cell suspension, mixed it gently and added 100 µL to each well, so that the cell density to be tested is 1500-2500 per well.
(§3) • A) Weighed approximately 2 mg the compound and calculated the required volume of DMSO according to the formula: Compound mass (mg) * Compound purity (%) / Compound molecular weight * 1000. • B) Placed the inoculated cell culture plate into an incubator and incubated for about 24 hours. Then added compounds of varying concentrations. • C) Diluted the 10mM compound stock solution to […] with culture medium, and added the […] compound solution to the second column of the deep well plate in sequence, and added […] culture medium containing 0.5% DMSO to the third to eleventh columns. • D) Gradient dilution: Taked 125 µL solution from the second column and added it to the third column, mix well; then taked 125 µL solution from the third column and added it to the fourth column, repeated this operation until the tenth column. • E) Used a multichannel pipette, aspirated 25 µL the compound from the deep-well plate and added it to a 96-well culture plate. Repeated this process three times for each compound on the 96-well plate. This will ultimately create a concentration gradient of up to 10,000 nM at a 1:4 ratio on the 96-well plate.
(§4) • A) The effects of the compound were observed under an inverted microscope after the 96-well plate was incubated in an incubator for 72 hours. • B) Added 25 µL CTG solution to each well, placed on a shaker for 10 minutes, and read the […] of each well.
(§5) Calculate the % Cell Viability using the following formula: %Cell Viability = 100% × (Lum_Sample−Lum_LC)/(Lum_HC−Lum_LC) [formula] • Lum_HC: Cell readings from the 0.1% DMSO control group • Lum_Sample: Cell readings with added compound • Lum_LC: Blank culture medium reading
(§6) The IC50 value was obtained by curve fitting using GraphPad Prism 8 software.

Row | Structure (SMILES) | IC50
5 | CCc1cc(Nc2ncc(Cl)c(Nc3ccccc3P(C)(C)=O)n2)c(OC)cc1N1CC2(CCN(C(=O)CN3CCC(c4cc5c(cc4F)c(N4CCC(=O)NC4=O)nn5C)CC3)CC2)C1 [TC-093] | 10 to 100 nM
6 | CCc1cc(Nc2ncc(Br)c(Nc3ccccc3P(C)(C)=O)n2)c(OC)cc1N1CCN(C(=O)Cn2nc(C)c(-c3cc4c(cc3F)c(N3CCC(=O)NC3=O)nn4C)c2C)CC1 [TC-144] | 10 to 100 nM

Tested on: PC-9
Assay: Cell anti-proliferation experiment (CTG)
Assay type: cell-based
Details: Homo sapiens, PC-9, 72 h, PC-9 (EGFR exon 19 deletion), class symbol
Excerpt: as §1, §2, §3, §4, §5, §6

Row | Structure (SMILES) | IC50
7 | CCc1cc(Nc2ncc(Cl)c(Nc3ccccc3P(C)(C)=O)n2)c(OC)cc1N1CC2(CCN(C(=O)CN3CCC(c4cc5c(cc4F)c(N4CCC(=O)NC4=O)nn5C)CC3)CC2)C1 [TC-093] | 100 to 1000 nM
8 | CCc1cc(Nc2ncc(Br)c(Nc3ccccc3P(C)(C)=O)n2)c(OC)cc1N1CCN(C(=O)Cn2nc(C)c(-c3cc4c(cc3F)c(N3CCC(=O)NC3=O)nn4C)c2C)CC1 [TC-144] | 100 to 1000 nM

Tested on: A549
Assay: Cell anti-proliferation experiment (CTG)
Assay type: cell-based
Details: Homo sapiens, A549, 72 h, A549 (wild-type EGFR), class symbol
Excerpt: as §1, §2, §3, §4, §5, §6

Row | Structure (SMILES) | IC50
9 | CCc1cc(Nc2ncc(Cl)c(Nc3ccccc3P(C)(C)=O)n2)c(OC)cc1N1CC2(CCN(C(=O)CN3CCC(c4cc5c(cc4F)c(N4CCC(=O)NC4=O)nn5C)CC3)CC2)C1 [TC-093] | > 1000 nM
10 | CCc1cc(Nc2ncc(Br)c(Nc3ccccc3P(C)(C)=O)n2)c(OC)cc1N1CCN(C(=O)Cn2nc(C)c(-c3cc4c(cc3F)c(N3CCC(=O)NC3=O)nn4C)c2C)CC1 [TC-144] | 100 to 1000 nM

Tested on: Baf3-L858R-T790M - C797S (Baf3-LTC)
Assay: Cell anti-proliferation experiment (CTG)
Assay type: cell-based
Details: 72 h, class symbol
Excerpt: as §1, §2, §3, §4, §5, §6

Row | Structure (SMILES) | IC50
11 | CCc1cc(Nc2ncc(Cl)c(Nc3ccccc3P(C)(C)=O)n2)c(OC)cc1N1CC2(CCN(C(=O)CN3CCC(c4cc5c(cc4F)c(N4CCC(=O)NC4=O)nn5C)CC3)CC2)C1 [TC-093] | 10 to 100 nM
12 | CCc1cc(Nc2ncc(Br)c(Nc3ccccc3P(C)(C)=O)n2)c(OC)cc1N1CCN(C(=O)Cn2nc(C)c(-c3cc4c(cc3F)c(N3CCC(=O)NC3=O)nn4C)c2C)CC1 [TC-144] | < 10 nM

Tested on: Baf3-19del- T790M -C797S (Baf3-DTC)
Assay: Cell anti-proliferation experiment (CTG)
Assay type: cell-based
Details: 72 h, class symbol
Excerpt: as §1, §2, §3, §4, §5, §6

Row | Structure (SMILES) | IC50
13 | CCc1cc(Nc2ncc(Cl)c(Nc3ccccc3P(C)(C)=O)n2)c(OC)cc1N1CC2(CCN(C(=O)CN3CCC(c4cc5c(cc4F)c(N4CCC(=O)NC4=O)nn5C)CC3)CC2)C1 [TC-093] | 10 to 100 nM
14 | CCc1cc(Nc2ncc(Br)c(Nc3ccccc3P(C)(C)=O)n2)c(OC)cc1N1CCN(C(=O)Cn2nc(C)c(-c3cc4c(cc3F)c(N3CCC(=O)NC3=O)nn4C)c2C)CC1 [TC-144] | < 10 nM

Tested on: A431
Assay: Cell anti-proliferation experiment (CTG)
Assay type: cell-based
Details: Homo sapiens, A-431, 72 h, A431 (wild-type EGFR), class symbol
Excerpt: as §1, §2, §3, §4, §5, §6

Row | Structure (SMILES) | IC50
15 | CCc1cc(Nc2ncc(Cl)c(Nc3ccccc3P(C)(C)=O)n2)c(OC)cc1N1CC2(CCN(C(=O)CN3CCC(c4cc5c(cc4F)c(N4CCC(=O)NC4=O)nn5C)CC3)CC2)C1 [TC-093] | > 1000 nM
16 | CCc1cc(Nc2ncc(Br)c(Nc3ccccc3P(C)(C)=O)n2)c(OC)cc1N1CCN(C(=O)Cn2nc(C)c(-c3cc4c(cc3F)c(N3CCC(=O)NC3=O)nn4C)c2C)CC1 [TC-144] | > 1000 nM

Tested on: HCC827
Assay: Cell anti-proliferation experiment (CTG)
Assay type: cell-based
Details: Homo sapiens, HCC827, 72 h, HCC827 (exon 19 deletion), class symbol
Excerpt: as §1, §2, §3, §4, §5, §6

Row | Structure (SMILES) | IC50
17 | CCc1cc(Nc2ncc(Cl)c(Nc3ccccc3P(C)(C)=O)n2)c(OC)cc1N1CC2(CCN(C(=O)CN3CCC(c4cc5c(cc4F)c(N4CCC(=O)NC4=O)nn5C)CC3)CC2)C1 [TC-093] | 10 to 100 nM
18 | CCc1cc(Nc2ncc(Br)c(Nc3ccccc3P(C)(C)=O)n2)c(OC)cc1N1CCN(C(=O)Cn2nc(C)c(-c3cc4c(cc3F)c(N3CCC(=O)NC3=O)nn4C)c2C)CC1 [TC-144] | 100 to 1000 nM
